Test results: patent EP0256125A1, “MEANS FOR PREVENTING MICROBIOLOGICAL OVERGROWING OF HARD SURFACE” (priority 1985, dated 1987)

Legend:
p.Pseudomonas = assay: Bactericidal activity, growth on agar medium; type: cell-based; details: 37°C, 5 Tage
Description: (§1) Die bakterizide Aktivität des Kalium N-(vinyloxyethyl)-dithiocarbamats gegenüber den Bakterien, die von der Oberfläche von Wänden und Decken der Produktionsräume von Brauereien und Fabriken zur Herstellunq von alkoholfreien Getränken ausgeschieden wurden und die zu p.p.Bacillus, Micrococcus, Pseudomonas, Escherichiae gehören, wurde geprüft.
(§2) Es wurden wäßrige Lösungen des genannten Stoffes verschiedener Konzentration hergestellt, die so berechnet wurde, daß bei Einführung von 1 ml der Lösung in 25 ml geschmolzenen agarisierten Nährboden (45-50°C) die Konzentration des Stoffes im Nährboden von 0,003 bis 0,5% betrug. In 18 bis 24 Stunden wurde auf die Oberfläche des Nährbodens 0,1 ml der wäßrigen Suspension der eintägigen reinen Bakterienkulturen aufgetragen, die am Fleisch-Pepton-Agar gezüchtet wurden. Die Suspension wurde gleichmäßig verteilt. In Kontrollschalen wurden 0,1 ml Wasser auf der Oberfläche des Närhbodens verteilt.
(§3) Die Inkubation führte man bei einer Temperatur von 37°C während 5 Tage durch.
(§4) Die effektive Wirkung des Stoffes wurde nach dem Auftreten des Bakterienwachstums an der Oberfläche des Nährbodens bewertet.

p.Bacillus = assay: Bactericidal activity, growth on agar medium; type: cell-based; details: 37°C, 5 Tage
Description: as §1, §2, §3, §4

p.Micrococcus = assay: Bactericidal activity, growth on agar medium; type: cell-based; details: 37°C, 5 Tage
Description: as §1, §2, §3, §4

p. Escherichiae = assay: Bactericidal activity, growth on agar medium; type: cell-based; details: 37°C, 5 Tage
Description: as §1, §2, §3, §4

Cladosporium resinae = assay: Fungicidal activity, inhibition of mycelium growth on wort agar; type: cell-based
Text: (§5) Man prüfte die funguzide Aktivität von Zink-bis-(N-vi- nyloxyethyl)dithiocarbamat gegenüber den reinen Pilzkulturen: Gladosporium resinae, Cladosporium cladosporioides, Acremonium corvum, Acremonium charticola, Penicillium charlesii Smith, Walrotiela subiculesa, Geotrichum candidum Link, Oidium, Penicillium crysogenum. Die genannten Pilze wurden von den Oberflächen der Wände und Decken von Bierbrauereien und Werken für die Herstellung von alkoholfreien Getränken ausgeschieden.
(§6) […] In eine der Petri-Schalen wurde Nährboden mit 1 ml Azeton (Kontrolle) gegossen.
(§7) In 18 bis 20 Stunden nach dem Vergießen des Nährbodens in die Petri-Schalen führte man die Inokulation der reinen Pilzkultur durch, die vorher an einem Schräg-Würzeagar während 15 Tage gezüchtet wurden. Die Inkubation führte man bei einer Temperatur von 25 bis 27°C während 5 Tage durch. Danach wurde der Durchmesser der Pilzkolonien gemessen und der Prozentsatz der Hemmung des Wachstums des Myzeliums (S) nach der Abbott -Formel gezählt: [formula] worin dc Durchmesser der Pilzkolonien in Kontrolle ist, de =Durchmesser der Pilzkolonien in einer Schale mit dem Nährboden ist, der Zink-bis-(N-vinyloxyethyl)dithiocarbamat enthält.

Penicillium chrysogenum = assay: as above; type: cell-based
Text: as §5, §6, §7

Acremonium charticola = assay: as above; type: cell-based
Text: as §5, §6, §7

[1] = tested on: Penicillium charlesii Smith; assay: as above; type: cell-based
Text: as §5, §6, §7

Geotrichum candidum Link = assay: as above; type: cell-based
Text: as §5, §6, §7

Walrotiela subiculesa = assay: as above; type: cell-based
Text: as §5, §6, §7

[2] = tested on: Cladosporium cladosporioides; assay: as above; type: cell-based
Text: as §5, §6, §7

Acremonium corvum = assay: as above; type: cell-based
Text: as §5, §6, §7

Oidium = assay: as above; type: cell-based
Text: as §5, §6, §7

[3] = Solubility in solvents (qualitative); details: for Löslichkeit im Alkohol: Alkohol (Ethylalkohol)
weißen Mäusen = assay: Acute toxicity in white mice
[4] = tested on: Schimmelpilzen, die die Bewachsung von Oberflächen hervorrufen; assay: Fungicidal activity, summary over all tested fungi; type: cell-based; details: day 5
Text: as §5
Es wurden Lösungen des Zink-bis-(N-vinyloxyethyl)di- thiocarbamats im Azeton verschiedener Konzentration hergestellt, die so berechnet wurde, daß bei der Einführung vor 1 ml Lösung in 10 ml des geschmolzenen Würzeagars (45-50°C) die Konzentration des genannten Stoffes im Medium von 0,0015 bis 0,012% betrug. In eine der Petri-Schalen wurde Nährboden mit 1 ml Azeton (Kontrolle) gegossen.
as §7

[5] = Storage stability (qualitative); type: physicochemical; details: result in words
[6] = Konzentration des Stoffes 0,1 % (0,10)
[7] = Konzentration des Stoffes 0,05 %
[8] = Konzentration des Stoffes 0,15 %
[9] = Konzentration des Stoffes 0,0015 %
[10] = Konzentration des Stoffes 0,003 %
[11] = Konzentration des Stoffes 0,006 %
[12] = Konzentration des Stoffes 0,012 %

Kupfer-N-(vinyloxyethyl)dithiocarbamat
Konzentration der Salze der N-(vinyloxyethyl)dithiocarbaminsäure (100%), die das Wachstum der Bakterien am 5. Tag des Wachstums hemmen, p.Pseudomonas (p.Pseudomonas): 0,25%
Konzentration der Salze der N-(vinyloxyethyl)dithiocarbaminsäure (100%), die das Wachstum der Bakterien am 5. Tag des Wachstums hemmen, p.Bacillus (p.Bacillus): 0,25%
Konzentration der Salze der N-(vinyloxyethyl)dithiocarbaminsäure (100%), die das Wachstum der Bakterien am 5. Tag des Wachstums hemmen, p.Micrococcus (p.Micrococcus): 0,25%
Konzentration der Salze der N-(vinyloxyethyl)dithiocarbaminsäure (100%), die das Wachstum der Bakterien am 5. Tag des Wachstums hemmen, p. Escherichiae (p. Escherichiae): 0,25%
Hemmung des Myzeliums am 5. Tag des Wachstums, Cladosporium resinae (Cladosporium resinae; [6]): 43%
Hemmung des Myzeliums am 5. Tag des Wachstums, Cladosporium resinae (Cladosporium resinae; [7]): 34%
Hemmung des Myzeliums am 5. Tag des Wachstums, Cladosporium resinae (Cladosporium resinae; [8]): 100%
Hemmung des Myzeliums am 5. Tag des Wachstums, Penicillium chrysogenum (Penicillium chrysogenum; [6]): 24%
Hemmung des Myzeliums am 5. Tag des Wachstums, Penicillium chrysogenum (Penicillium chrysogenum; [7]): 4%
Hemmung des Myzeliums am 5. Tag des Wachstums, Penicillium chrysogenum (Penicillium chrysogenum; [8]): 85%
Hemmung des Myzeliums am 5. Tag des Wachstums, Acremonium charticola (Acremonium charticola; [6]): 100%
Hemmung des Myzeliums am 5. Tag des Wachstums, Acremonium charticola (Acremonium charticola; [7]): 43%
Hemmung des Myzeliums am 5. Tag des Wachstums, Acremonium charticola (Acremonium charticola; [8]): 100%
Hemmung des Myzeliums am 5. Tag des Wachstums, Penicillium charlesii Smith [1, 6]: 56%
Hemmung des Myzeliums am 5. Tag des Wachstums, Penicillium charlesii Smith [1, 7]: 24%
Hemmung des Myzeliums am 5. Tag des Wachstums, Penicillium charlesii Smith [1, 8]: 92%
Hemmung des Myzeliums am 5. Tag des Wachstums, Geotrichum candidum Link (Geotrichum candidum Link; [6]): 50%
Hemmung des Myzeliums am 5. Tag des Wachstums, Geotrichum candidum Link (Geotrichum candidum Link; [7]): 3%
Hemmung des Myzeliums am 5. Tag des Wachstums, Geotrichum candidum Link (Geotrichum candidum Link; [8]): 100%
Hemmung des Myzeliums am 5. Tag des Wachstums, Walrotiela subiculesa (Walrotiela subiculesa; [6]): 100%
Hemmung des Myzeliums am 5. Tag des Wachstums, Walrotiela subiculesa (Walrotiela subiculesa; [7]): 30%
Hemmung des Myzeliums am 5. Tag des Wachstums, Walrotiela subiculesa (Walrotiela subiculesa; [8]): 100%
Hemmung des Myzeliums am 5. Tag des Wachstums, Cladosporium cladosporioides [2, 6]: 100%
Hemmung des Myzeliums am 5. Tag des Wachstums, Cladosporium cladosporioides [2, 7]: 45%
Hemmung des Myzeliums am 5. Tag des Wachstums, Cladosporium cladosporioides [2, 8]: 100%
Hemmung des Myzeliums am 5. Tag des Wachstums, Acremonium corvum (Acremonium corvum; [6]): 100%
Hemmung des Myzeliums am 5. Tag des Wachstums, Acremonium corvum (Acremonium corvum; [7]): 50%
Hemmung des Myzeliums am 5. Tag des Wachstums, Acremonium corvum (Acremonium corvum; [8]): 100%
Hemmung des Myzeliums am 5. Tag des Wachstums, Oidium (Oidium; Konzentration des Stoffes 0,1 %): 67%
Hemmung des Myzeliums am 5. Tag des Wachstums, Oidium (Oidium; [7]): 0%
Hemmung des Myzeliums am 5. Tag des Wachstums, Oidium (Oidium; [8]): 100%
Löslichkeit im Alkohol [3]: teilweise löslich
Löslichkeit im Azeton [3]: teilweise löslich
Löslichkeit im Diethylether ([3]; Diethylether): unlöslich
Löslichkeit im Dimethylsulfoxid [3]: gut
Löslichkeit in Wasser [3]: unlöslich
LD50 (weißen Mäusen; intraabdominale Einführung bei weißen Mäusen): 267 mg/kg
Konzentration, bei der die Entwicklung aller untersuchten Pilze vollständig gehemmt wurde [4]: 0,15%
Lagerbeständigkeit [5]: lagerbeständig

Zink-bis-(N-vinyloxyethyl)dithiocarbamat
Konzentration der Salze der N-(vinyloxyethyl)dithiocarbaminsäure (100%), die das Wachstum der Bakterien am 5. Tag des Wachstums hemmen, p.Pseudomonas (p.Pseudomonas): 0,05%
Konzentration der Salze der N-(vinyloxyethyl)dithiocarbaminsäure (100%), die das Wachstum der Bakterien am 5. Tag des Wachstums hemmen, p.Bacillus (p.Bacillus): 0,05%
Konzentration der Salze der N-(vinyloxyethyl)dithiocarbaminsäure (100%), die das Wachstum der Bakterien am 5. Tag des Wachstums hemmen, p.Micrococcus (p.Micrococcus): 0,05%
Konzentration der Salze der N-(vinyloxyethyl)dithiocarbaminsäure (100%), die das Wachstum der Bakterien am 5. Tag des Wachstums hemmen, p. Escherichiae (p. Escherichiae): 0,05%
Hemmung des Myzeliums am 5. Tag des Wachstums, Cladosporium resinae (Cladosporium resinae; [9]): 37,5%
Hemmung des Myzeliums am 5. Tag des Wachstums, Cladosporium resinae (Cladosporium resinae; [10]): 100%
Hemmung des Myzeliums am 5. Tag des Wachstums, Cladosporium resinae (Cladosporium resinae; [11]): 100%
Hemmung des Myzeliums am 5. Tag des Wachstums, Cladosporium resinae (Cladosporium resinae; [12]): 100%
Hemmung des Myzeliums am 5. Tag des Wachstums, Penicillium chrysogenum (Penicillium chrysogenum; [9]): 10%
Hemmung des Myzeliums am 5. Tag des Wachstums, Penicillium chrysogenum (Penicillium chrysogenum; [10]): 40%
Hemmung des Myzeliums am 5. Tag des Wachstums, Penicillium chrysogenum (Penicillium chrysogenum; [11]): 80%
Hemmung des Myzeliums am 5. Tag des Wachstums, Penicillium chrysogenum (Penicillium chrysogenum; [12]): 100%
Hemmung des Myzeliums am 5. Tag des Wachstums, Acremonium charticola (Acremonium charticola; [9]): 50%
Hemmung des Myzeliums am 5. Tag des Wachstums, Acremonium charticola (Acremonium charticola; [10]): 100%
Hemmung des Myzeliums am 5. Tag des Wachstums, Acremonium charticola (Acremonium charticola; [11]): 100%
Hemmung des Myzeliums am 5. Tag des Wachstums, Acremonium charticola (Acremonium charticola; [12]): 100%
Hemmung des Myzeliums am 5. Tag des Wachstums, Penicillium charlesii Smith [1, 9]: 90%
Hemmung des Myzeliums am 5. Tag des Wachstums, Penicillium charlesii Smith [1, 10]: 100%
Hemmung des Myzeliums am 5. Tag des Wachstums, Penicillium charlesii Smith [1, 11]: 100%
Hemmung des Myzeliums am 5. Tag des Wachstums, Penicillium charlesii Smith [1, 12]: 100%
Hemmung des Myzeliums am 5. Tag des Wachstums, Geotrichum candidum Link (Geotrichum candidum Link; [9]): 29%
Hemmung des Myzeliums am 5. Tag des Wachstums, Geotrichum candidum Link (Geotrichum candidum Link; [10]): 100%
Hemmung des Myzeliums am 5. Tag des Wachstums, Geotrichum candidum Link (Geotrichum candidum Link; [11]): 100%
Hemmung des Myzeliums am 5. Tag des Wachstums, Geotrichum candidum Link (Geotrichum candidum Link; [12]): 100%
Hemmung des Myzeliums am 5. Tag des Wachstums, Walrotiela subiculesa (Walrotiela subiculesa; [9]): 52%
Hemmung des Myzeliums am 5. Tag des Wachstums, Walrotiela subiculesa (Walrotiela subiculesa; [10]): 100%
Hemmung des Myzeliums am 5. Tag des Wachstums, Walrotiela subiculesa (Walrotiela subiculesa; [11]): 100%
Hemmung des Myzeliums am 5. Tag des Wachstums, Walrotiela subiculesa (Walrotiela subiculesa; [12]): 100%
Hemmung des Myzeliums am 5. Tag des Wachstums, Cladosporium cladosporioides [2, 9]: 100%
Hemmung des Myzeliums am 5. Tag des Wachstums, Cladosporium cladosporioides [2, 10]: 100%
Hemmung des Myzeliums am 5. Tag des Wachstums, Cladosporium cladosporioides [2, 11]: 100%
Hemmung des Myzeliums am 5. Tag des Wachstums, Cladosporium cladosporioides [2, 12]: 100%
Hemmung des Myzeliums am 5. Tag des Wachstums, Acremonium corvum (Acremonium corvum; [9]): 40%
Hemmung des Myzeliums am 5. Tag des Wachstums, Acremonium corvum (Acremonium corvum; [10]): 100%
Hemmung des Myzeliums am 5. Tag des Wachstums, Acremonium corvum (Acremonium corvum; [11]): 100%
Hemmung des Myzeliums am 5. Tag des Wachstums, Acremonium corvum (Acremonium corvum; [12]): 100%
Hemmung des Myzeliums am 5. Tag des Wachstums, Oidium (Oidium; [9]): 80%
Hemmung des Myzeliums am 5. Tag des Wachstums, Oidium (Oidium; [10]): 100%
Hemmung des Myzeliums am 5. Tag des Wachstums, Oidium (Oidium; [11]): 100%
Hemmung des Myzeliums am 5. Tag des Wachstums, Oidium (Oidium; [12]): 100%
Löslichkeit im Alkohol [3]: begrenzt
Löslichkeit im Azeton [3]: begrenzt
Löslichkeit im Dimethylsulfoxid [3]: gut
Löslichkeit in Wasser [3]: unlöslich
LD50 (weißen Mäusen; perorale Einführung bei weißen Mäusen): 1120 + 260 mg/kg
Konzentration, bei der die Entwicklung aller untersuchten Pilze vollständig gehemmt wurde [4]: 0,012%
